In brackets after ≈: the same amount, converted by molar mass. Where only a bound is given, the exact number is not on record here.

Assay [1] in a line: Inhibition of Escherichia coli recombinant methionine aminopeptidase expressed in Escherichia coli BL21 (DE3) using MetAMC as substrate in presence of Co(II).
Assay [2] is described as follows: Inhibition of Escherichia coli recombinant methionine aminopeptidase expressed in Escherichia coli BL21 (DE3) using MetAMC as substrate in presence of Mn(II).
The nature of assay [3]: Inhibition of Escherichia coli recombinant methionine aminopeptidase expressed in Escherichia coli BL21 (DE3) using MetAMC as substrate in presence of Fe(II).
The test system of the next assay is Escherichia coli. The experiment in a line: Antibacterial activity against Escherichia coli AS19 after 10 hrs by fluorescence assay. In kind it is functional, organism-based. The following applies: AS19, 10 h.

As usually defined, the IC50 is the point on the concentration scale where inhibition reaches its midpoint. One may read the MIC as the least concentration at which growth counts as inhibited. Read a low MIC as greater potency. `O=C(O)c1ccc(-c2cccs2)c(F)c1`: the IC50 in assay [1] is 251 µM; in assay [2], 143 µM; in assay [3], 267 µM; with Escherichia coli, above 1000 µM. Further, the minimal inhibitory concentration (MIC) with Escherichia coli was above 222 µg/mL.

For the molecule `O=C(O)c1ccc(-c2ccc(Cl)s2)c(F)c1`, the IC50 in assay [1] worked out at 166 µM; in assay [2], 118 µM; in assay [3], 203 µM; in the assay with Escherichia coli it was 641 µM. Further, the MIC against Escherichia coli was 297 µg/mL (≈ 1160 µM).

Turning to `Cc1ccc(-c2ccc(C(=O)O)cc2F)s1`, the half-inhibitory concentration (IC50) amounted to 329 µM in assay [1], 336 µM in assay [2], 253 µM in assay [3] and 871 µM in the assay on Escherichia coli. Further, the MIC in the assay with Escherichia coli was found to be 306 µg/mL (≈ 1300 µM).

On to `COc1cc(-c2cccs2)ccc1C(=O)O`, for which the IC50 is 254 µM in assay [1], 89.8 µM in assay [2], 500 µM in assay [3] and above 1000 µM with Escherichia coli. This molecule also yielded a minimal inhibitory concentration (MIC) in the assay with Escherichia coli above 234 µg/mL.

On to `O=C(O)c1cc(-c2cccs2)c(Cl)cc1O`, for which the IC50 in assay [1] turned out to be 88.1 µM; in assay [2], 33.7 µM; in assay [3], 3.1 µM; in the assay on Escherichia coli, 74.6 µM. In the assay with Escherichia coli, this molecule showed an MIC of 38 µg/mL (≈ 149 µM).

Regarding `O=C(O)c1ccc(-c2cccs2)cc1O`, the half-inhibitory concentration (IC50) in assay [1] stood at 65.2 µM; in assay [2] it was 80.2 µM; in assay [3] it was 39.1 µM; in the assay on Escherichia coli it was 112 µM. The same molecule yielded a minimum inhibitory concentration (MIC) in the assay on Escherichia coli of 100 µg/mL (≈ 454 µM).

For the molecule `COc1ccc(C(=O)O)cc1-c1ccc(C)s1`, the half-maximal inhibitory concentration (IC50) in assay [1] was 464 µM; in assay [2] it was 33.8 µM; in assay [3] it was 167 µM; in the assay with Escherichia coli it was above 1000 µM. Further, the MIC against Escherichia coli was above 248 µg/mL.

For the molecule `COc1ccc(C(=O)O)cc1-c1cccs1`, the IC50 is above 500 µM in assay [1], 17.4 µM in assay [2], 192 µM in assay [3] and above 1000 µM with Escherichia coli. In the assay on Escherichia coli, this molecule came in with a minimum inhibitory concentration (MIC) above 234 µg/mL.

As for `O=C(O)c1ccc(-c2cc(Cl)sc2Cl)cc1O`, the 50% inhibitory concentration (IC50) in assay [1] was 118 µM; in assay [2], 97.5 µM; in assay [3] it was 29.9 µM; in the assay on Escherichia coli it was 51.4 µM. Further, the MIC in the assay on Escherichia coli is 33 µg/mL (≈ 114 µM).

With `O=C(O)c1cc(-c2ccc(Cl)s2)c(Cl)cc1O`, the IC50 stood at 74.1 µM in assay [1], 36.6 µM in assay [2], 4.9 µM in assay [3] and 48.5 µM with Escherichia coli. Besides, the MIC in the assay on Escherichia coli was 30 µg/mL (≈ 104 µM).

As to `COc1cc(Cl)c(-c2ccc(C)s2)cc1C(=O)O`, the concentration for half-maximal inhibition (IC50) in assay [1] is 70.9 µM; in assay [2] it was 11.4 µM; in assay [3], 106 µM; with Escherichia coli it was above 1000 µM. In the assay with Escherichia coli, the MIC is above 282 µg/mL.

Regarding `COc1cc(Cl)c(-c2cccs2)cc1C(=O)O`, the IC50 in assay [1] was 203 µM; in assay [2], 19.1 µM; in assay [3] it was 208 µM; with Escherichia coli, above 1000 µM. Besides, the MIC in the assay on Escherichia coli was above 268 µg/mL.

As to `O=C(O)c1ccc(-c2ccc(Cl)s2)cc1O`, the IC50 worked out at 87.7 µM in assay [1], 62.7 µM in assay [2], 73 µM in assay [3] and 34.1 µM with Escherichia coli. In the assay on Escherichia coli, this molecule gave an MIC of 28 µg/mL (≈ 110 µM).

In the case of `COc1cc(-c2cc(Cl)sc2Cl)ccc1C(=O)O`, the IC50 in assay [1] is 290 µM; in assay [2] it was 97.3 µM; in assay [3], above 500 µM; in the assay on Escherichia coli, 829 µM. The same molecule displayed a minimal inhibitory concentration (MIC) against Escherichia coli of 521 µg/mL (≈ 1720 µM).

As to `COc1cc(-c2ccc(C)s2)ccc1C(=O)O`, the IC50 in assay [1] came to 256 µM; in assay [2], 160 µM; in assay [3], 270 µM; with Escherichia coli, 550 µM. For the same molecule, the lowest concentration to inhibit growth against Escherichia coli (MIC) was 272 µg/mL (≈ 1100 µM).

With `Cc1ccc(-c2cc(C(=O)O)c(O)cc2Cl)s1`, the IC50 in assay [1] was found to be 77.4 µM; in assay [2], 37.8 µM; in assay [3] it was 6.8 µM; with Escherichia coli, 161 µM. Inhibition of growth in the assay with Escherichia coli (MIC) required 87 µg/mL (≈ 324 µM).

For the molecule `Cc1ccc(-c2ccc(C(=O)O)c(O)c2)s1`, the IC50 in assay [1] amounted to 81 µM; in assay [2] it was 90.7 µM; in assay [3] it was 109 µM; in the assay on Escherichia coli, 73.1 µM. In the assay on Escherichia coli, the MIC turned out to be 47 µg/mL (≈ 201 µM).

As for `O=C(O)c1ccc(-c2cccs2)cc1`, the 50% inhibitory concentration (IC50) in assay [1] was 249 µM; in assay [2], 159 µM; in assay [3], above 500 µM; in the assay on Escherichia coli, above 1000 µM. This molecule gave an MIC against Escherichia coli above 204 µg/mL.

For the origin of these results see ChEMBL document CHEMBL1921696, “Synthesis and biological evaluation of salicylate-based compounds as a novel class of methionine aminopeptidase inhibitors” (Bioorg Med Chem Lett, 2011).
